Measurements as given in US20260217701A1, “SELECTIVE BET INHIBITORS AND USES THEREOF” (Tay Therapeutics Limited, priority 2022, published 2026).
Values joined by “and” are separate entries in the source; they are usually repeats but may differ in a detail not shown here. Identical values can stand only once. Like-named read-outs stand apart in the source and are kept apart here.

Key:
[1] = CIA study: clinical observations; assay type: in vivo, Lewis rats; conditions: CIA rats
[2] = UUO study: plasma concentration of Compound A; assay type: in vivo, rats; conditions: for concentration at 4 h: rat, plasma, oral, 10 mg/kg
[3] = Rat PK study #4 (Compound A PO 0.2 and 1.0 mg/kg, propylene glycol formulation); assay type: in vivo, Lewis rats; conditions: propylene glycol-based formulation; for Plasma Concentration / concentration at 0.25 h / concentration at 0.5 h / concentration at 1 h / concentration at 2 h / concentration at 4 h / concentration at 6 h / concentration at 8 h / concentration at 24 h: Lewis rats; for MRT inf: read-out: MRTInf_obs
Experimental: For the fourth rat pharmacokinetic study, the pharmacokinetics of Compound A were assessed in male Lewis rats. Compound A was prepared in two different doses (0.2 mg/kg and 1.0 mg/kg) formulated in 20% propylene glycol/20% Vitamin E TPGS/60% water (see Table 1A for formulations). Animals were divided into two groups based on the compound formulation (n=3/group). The Compound A solutions were administered to animals orally (PO) and animals were then monitored over a 24 h period.
Blood samples (~0.2 mL) were collected according to a schedule (0.25, 0.5, 1, 2, 4, 6, 8, and 24 h following the initial dosing) by jugular vein by cannulation and EDTA-K2 was used as anticoagulant. Within 30 minutes of collection, the samples were centrifuged at approximately 4000 times g-force for 5 minutes at 4° C. to obtain blood plasma. The plasma samples were immediately divided into two aliquots (~75 μL each), transferred to a cryogenic vial, and stored in a freezer at −75±15° C. prior to analysis.
The concentration of Compound A in plasma samples was determined by liquid chromatography-mass spectrometry (LC-MS/MS) using a Shimadzu HPLC (DGU-20A5R; LC-30AD; SIL-30AC; Rack changer II; CTO-30A; and CBM-20A) and an AB API 5500+LC/MS/MS instrument. Samples were analyzed on an Agilent Poroshell 120 EC-C18 4 μm (50×2.1 mm) column. Solution A in the mobile phase was 95% water (0.1% formic acid) and solution B was 95% acetonitrile in water (0.1% formic acid), injection volume was 10 μL, and flow rate was 0.6 mL/min.
To prepare samples for analysis, serial concentrations were prepared by diluting the stock solution of analyte with a 50% acetonitrile in water solution. 5 μL working solutions (5, 10, 20, 50, 100, 500, 1000, 5000, and 10000 ng/ml) were added to 50 μL of the blank Lewis rat plasma to achieve calibration standards of ~0.5 to 1000 ng/ml (0.5, 1, 2, 5, 10, 50, 100, 500, and 1000 ng/ml) in a total volume of 55 μL. Five quality control samples at 1 ng/ml, 2 ng/ml, 5 ng/ml, 50 ng/ml, and 800 ng/ml for plasma were prepared independently of those used for the calibration curves. These QC samples were prepared on the day of analysis in the same way as calibration standards.
55 μL of standards, 55 μL of QC samples and 55 μL of unknown samples (50 μL of unknown rat plasma with 5 µL of blank solution) were added to 200 μL of acetonitrile containing IS mixture (verapamil) for precipitating protein respectively. The samples were then vortexed for 30 s. After centrifugation at 4° C., 3900 rpm for 15 min, the supernatant was diluted 3 times with water. 10 μL of diluted supernatant was injected into the LC/MS/MS system for quantitative analysis.

[4] = 0.2 mg/kg PO, individual animals
[5] = male, Lewis, rat, plasma, po, 0.2 mg/kg, 0.2 mg/kg PO, individual animals
[6] = male, Lewis, rat, plasma, po, 0.2 mg/kg, 0.2 mg/kg PO, mean
[7] = male, Lewis, rat, plasma, po, 1 mg/kg, 1 mg/kg PO, individual animals
[8] = male, Lewis, rat, plasma, po, 1 mg/kg, 1 mg/kg PO, mean

For `Cn1cc(-c2ccccc2)c(-c2cn(C)c(=O)c3[nH]c(-c4cnn(C(F)(F)F)c4)cc23)cc1=O` [Compound A, 6-methyl-4-(1-methyl-2-oxo-5-phenyl-1,2-dihydropyridin-4-yl)-2-(1-(trifluoromethyl)-1H-pyrazol-4-yl)-1,6-dihydro-7H-pyrrolo[2,3-c]pyridin-7-one], the Clinical observations ([1]; 1 mg/kg, Day 16) was “Diarrhea”, the Clinical observations ([1]; 3 mg/kg, Day 13) was “Diarrhea” and the Clinical observations ([1]; 3 mg/kg, Day 14) was “Diarrhea”. For the same molecule, the Clinical observations ([1]; 3 mg/kg, Day 15) was “Diarrhea”, the Clinical observations ([1]; 3 mg/kg, Day 16) was “Diarrhea” and the Clinical observations ([1]; 3 mg/kg, Day 21) was “Diar-”. For the same molecule, the Clinical observations ([1]; 10 mg/kg, Day 12) was “Diarrhea”, the Clinical observations ([1]; 10 mg/kg, Day 13) was “Diarrhea” and the Clinical observations ([1]; 10 mg/kg, Day 14) was “Diarrhea”. For the same molecule, the Clinical observations ([1]; 10 mg/kg, Day 15) was “Diarrhea”, the Clinical observations ([1]; 10 mg/kg, Day 16) was “Diarrhea” and the Clinical observations ([1]; 10 mg/kg, Day 17) was “Diarrhea”. For the same molecule, the Clinical observations ([1]; 10 mg/kg, Day 18) was “Diarrhea”, the Concentration ([2]; UUO + Compound A, male SD rats, time 4 h, individual Test Subjects 1-8) was 220 ng/mL and 318 ng/mL and 133 ng/mL and 215 ng/mL and 132 ng/mL and 194 ng/mL and 198 ng/mL and 195 ng/mL and the concentration at 4 h ([2]; male, Sprague-Dawley, UUO + Compound A, male SD rats, time 4 h, mean of 8 test subjects, read-out: Concentration, Mean) was 201 ng/mL. The concentration at 4 h ([2]; po, four hours after final treatment, read-out: Mean plasma concentration) was 201 ng/mL, the AUCInf [3, 4] was 82.0 ng·h/mL and 51.1 ng·h/mL and 103 ng·h/mL and the AUC_%Extrap_obs [3, 4] was 7.28% and 43.9% and 3.68%. For the same molecule, the AUClast [3, 4] was 76.0 ng·h/mL and 28.7 ng·h/mL and 99.1 ng·h/mL, the AUClast/D [3, 4] was 380 (ng · h/mL)/(mg/kg) and 143 (ng · h/mL)/(mg/kg) and 496 (ng · h/mL)/(mg/kg) and the Cmax [3, 4] was 5.29 ng/mL and 8.20 ng/mL. The MRTInf_obs [3, 4] was 9.52 h and 7.69 h, the T1/2 [3, 4] was 6.09 h and 4.94 h and the AUC_%Extrap_obs ([3]; 0.2 mg/kg PO, mean) was 18.3%. The AUClast/D ([3]; 0.2 mg/kg PO, mean) was 340 (ng · h/mL)/(mg/kg), the AUCInf ([3]; 1 mg/kg PO, individual animals) was 454 ng·h/mL and 217 ng·h/mL and the AUC_%Extrap_obs ([3]; 1 mg/kg PO, individual animals) was 3.74% and 14.6%. The AUClast ([3]; 1 mg/kg PO, individual animals) was 437 ng·h/mL and 185 ng·h/mL and 447 ng·h/mL, the AUClast/D ([3]; 1 mg/kg PO, individual animals) was 437 (ng · h/mL)/(mg/kg) and 185 (ng · h/mL)/(mg/kg) and 447 (ng · h/mL)/(mg/kg) and the Cmax ([3]; 1 mg/kg PO, individual animals) was 47.5 ng/mL and 23.3 ng/mL and 44.9 ng/mL. For the same molecule, the MRTInf_obs ([3]; 1 mg/kg PO, individual animals) was 11.4 h, the T1/2 ([3]; 1 mg/kg PO, individual animals) was 9.35 h and the AUC_%Extrap_obs ([3]; 1 mg/kg PO, mean) was 9.2%. The AUClast/D ([3]; 1 mg/kg PO, mean) was 356 (ng · h/mL)/(mg/kg), the clinical symptoms ([3]; 0.2 and 1 mg/kg PO) was “no abnormal clinical symptoms observed” and the “Plasma Concentration” value ([3]; PO 1 mg/kg, 0.25 h, individual animals, 1 mg/kg) was 6.05 ng/mL and 2.36 ng/mL and 5.82 ng/mL. The “Plasma Concentration” value ([3]; PO 1 mg/kg, 0.5 h, individual animals, 1 mg/kg) was 19.1 ng/mL, the “Plasma Concentration” value ([3]; PO 1 mg/kg, 2 h, individual animals, 1 mg/kg) was 47.5 ng/mL and 23.3 ng/mL and 44.9 ng/mL and the “Plasma Concentration” value ([3]; PO 1 mg/kg, 4 h, individual animals, 1 mg/kg) was 37.4 ng/mL and 15.0 ng/mL and 27.5 ng/mL. The “Plasma Concentration” value ([3]; PO 1 mg/kg, 6 h, individual animals, 1 mg/kg) was 25.4 ng/mL and 9.27 ng/mL and 16.5 ng/mL, the “Plasma Concentration” value ([3]; PO 1 mg/kg, 8 h, individual animals, 1 mg/kg) was 20.4 ng/mL and 7.30 ng/mL and 11.6 ng/mL and the “Plasma Concentration” value ([3]; PO 1 mg/kg, 24 h, individual animals, 1 mg/kg) was 2.29 ng/mL and 2.35 ng/mL and 19.1 ng/mL. For the same molecule, the Tmax [3, 5] was 2 h, the half-life [3, 5] was 6.51 h and the Cmax ([3]; male, Lewis, rat, plasma, po, 0.2 mg/kg, 0.2 mg/kg PO, individual animals, read-out: Cmax) was 7.99 ng/mL. It also gave an MRT inf [3, 5] of 8.72 h, an AUC(0-inf) [3, 6] of 79 ng·h/mL and an AUC(0-t) [3, 6] of 67.9 ng·h/mL. For the same molecule, the Tmax [3, 6] was 2.67 h, the half-life [3, 6] was 5.85 h and the Cmax ([3]; male, Lewis, rat, plasma, po, 0.2 mg/kg, 0.2 mg/kg PO, mean, read-out: Cmax) was 7.16 ng/mL. For the same molecule, the MRT inf [3, 6] was 8.65 h, the concentration at 0.25 h ([3]; male, Lewis, rat, plasma, po, 0.2 mg/kg, PO 0.2 mg/kg, 0.25 h, mean of 3 animals) was 0.34 ng/mL and the concentration at 0.5 h ([3]; male, Lewis, rat, plasma, po, 0.2 mg/kg, PO 0.2 mg/kg, 0.5 h, individual animals) was 2.31 ng/mL. The concentration at 0.5 h ([3]; male, Lewis, rat, plasma, po, 0.2 mg/kg, PO 0.2 mg/kg, 0.5 h, mean of 3 animals) was 1.77 ng/mL, the concentration at 1 h ([3]; male, Lewis, rat, plasma, po, 0.2 mg/kg, PO 0.2 mg/kg, individual animals) was 5.24 ng/mL and the concentration at 1 h ([3]; male, Lewis, rat, plasma, po, 0.2 mg/kg, PO 0.2 mg/kg, mean of 3 animals) was 4.51 ng/mL. It also gave a concentration at 2 h ([3]; male, Lewis, rat, plasma, po, 0.2 mg/kg, PO 0.2 mg/kg, 2 h, individual animals) of 7.99 ng/mL, a concentration at 2 h ([3]; male, Lewis, rat, plasma, po, 0.2 mg/kg, PO 0.2 mg/kg, 2 h, mean of 3 animals) of 7.09 ng/mL and a concentration at 4 h ([3]; male, Lewis, rat, plasma, po, 0.2 mg/kg, PO 0.2 mg/kg, 4 h, mean of 3 animals) of 6.11 ng/mL. The concentration at 6 h ([3]; male, Lewis, rat, plasma, po, 0.2 mg/kg, PO 0.2 mg/kg, 6 h, individual animals) was 4.13 ng/mL, the concentration at 6 h ([3]; male, Lewis, rat, plasma, po, 0.2 mg/kg, PO 0.2 mg/kg, 6 h, mean of 3 animals) was 4.48 ng/mL and the concentration at 8 h ([3]; male, Lewis, rat, plasma, po, 0.2 mg/kg, PO 0.2 mg/kg, 8 h, mean of 3 animals) was 3.96 ng/mL. The concentration at 24 h ([3]; male, Lewis, rat, plasma, po, 0.2 mg/kg, PO 0.2 mg/kg, 24 h, mean of 3 animals) was 0.389 ng/mL, the Tmax [3, 7] was 2 h and the half-life [3, 7] was 5.14 h. For the same molecule, the MRT inf [3, 7] was 7.1 h, the AUC(0-inf) [3, 8] was 335 ng·h/mL and the AUC(0-t) [3, 8] was 356 ng·h/mL. It also gave a Tmax [3, 8] of 2 h, a half-life [3, 8] of 7.24 h and a Cmax ([3]; male, Lewis, rat, plasma, po, 1 mg/kg, 1 mg/kg PO, mean, read-out: Cmax) of 38.6 ng/mL. It also gave an MRT inf [3, 8] of 9.3 h, a concentration at 0.25 h ([3]; male, Lewis, rat, plasma, po, 1 mg/kg, PO 1 mg/kg, 0.25 h, mean of 3 animals) of 4.74 ng/mL and a concentration at 0.5 h ([3]; male, Lewis, rat, plasma, po, 1 mg/kg, PO 1 mg/kg, 0.5 h, mean of 3 animals) of 15.2 ng/mL. It also gave a concentration at 1 h ([3]; male, Lewis, rat, plasma, po, 1 mg/kg, PO 1 mg/kg, mean of 3 animals) of 30.4 ng/mL, a concentration at 2 h ([3]; male, Lewis, rat, plasma, po, 1 mg/kg, PO 1 mg/kg, 2 h, mean of 3 animals) of 38.6 ng/mL and a concentration at 4 h ([3]; male, Lewis, rat, plasma, po, 1 mg/kg, PO 1 mg/kg, 4 h, mean of 3 animals) of 26.6 ng/mL. The concentration at 6 h ([3]; male, Lewis, rat, plasma, po, 1 mg/kg, PO 1 mg/kg, 6 h, mean of 3 animals) was 17.1 ng/mL, the concentration at 8 h ([3]; male, Lewis, rat, plasma, po, 1 mg/kg, PO 1 mg/kg, 8 h, mean of 3 animals) was 13.1 ng/mL and the concentration at 24 h ([3]; male, Lewis, rat, plasma, po, 1 mg/kg, PO 1 mg/kg, 24 h, mean of 3 animals) was 7.9 ng/mL.
